Measured values: US12060366B2, “Bispecific degraders” (DANA-FARBER CANCER INSTITUTE, INC., priority 2018, dated 2024)

Tests used:
Assay type in all cases: cell-based
Settings in all cases: Flip-In 293 cells stably expressing eGFP-bromodomain fusion and mCherry; compound titrated, 5 h incubation; FIG. 1, 2A, 2B
BRD4BD1, BRD4BD2 = assay: Degradation of eGFP-fused BRD4 bromodomains, eGFP/mCherry reporter flow cytometry
Procedure: (§1) BRD2BD1, BRD2BD2, BRD3BD1, BRD3BD2, BRD4BD1, and BRD4BD2 were subcloned into mammalian pcDNA5/FRT Vector (Ampicillin and Hygromycin B resistant) modified to contain MCS-eGFP-P2A-mCherry. Stable cell lines expressing eGFP-protein fusion and mCherry reporter were generated using Flip-In 293 system. Plasmid (0.3 μg) and pOG44 (4.7 μg) DNA were preincubated in 100 μL of Opti-MEM™ I (Gibco™, Life Technologies™) media containing 0.05 mg/ml Lipofectamine® 2000 (Invitrogen™) for 20 min and added to Flip-In 293 cells containing 1.9 ml of Dulbecco's Modified Eagle's medium (DMEM) (Gibco™, Life Technologies™) per well in a 6-well plate format (Falcon, 353046). […]
(§2) Cells were seeded at 30-50% confluency in either 24, 48 or 96 well plates (3524, 3548, 3596 respectively, Costar) a day before compound treatment. The inventive compound 3 was titrated and then was incubated with cells for 5 h following trypsinization and resuspension in DMEM, transferred into 96-well plates (353910, Falcon®) and analyzed by flow cytometer (Guava® easyCyte™ HT, Millipore™). Signal from at least 3000 events per well was acquired and the eGFP and mCherry florescence monitored. Data was analyzed using FlowJo® (FlowJo®, LCC). […] The eGFP protein abundance relative to mCherry was then quantified as a ten-fold amplified ratio for each individual cell using the formula: 10× eGFP/mCherry. […]

BRD3BD1, BRD3BD2 = assay: Degradation of eGFP-fused BRD3 bromodomains, eGFP/mCherry reporter flow cytometry
Procedure: as §1, §2

BRD2BD1, BRD2BD2 = assay: Degradation of eGFP-fused BRD2 bromodomains, eGFP/mCherry reporter flow cytometry
Procedure: as §1, §2

SMILES | degradation of stably expressed bromodomains of BRD4 (GFP/mCherry ratio) (BRD4BD1, BRD4BD2) | degradation of stably expressed bromodomains of BRD3 (GFP/mCherry ratio) (BRD3BD1, BRD3BD2) | degradation of stably expressed bromodomains of BRD2 (GFP/mCherry ratio) (BRD2BD1, BRD2BD2)
COC(=O)C[C@@H]1N=C(c2ccc(Cl)cc2)c2c(sc(C(=O)NCCCCCNc3cccnc3C(=O)NC3CCC(=O)NC3=O)c2C)-n2c(C)nnc21 (stereo partly drawn) [compound 3, methyl 2-((6S)-4-(4-chlorophenyl)-2-((5-((2-((2,6-dioxopiperidin-3-yl)carbamoyl)pyridin-3-yl)amino)pentyl)carbamoyl)-3,9-dimethyl-6H-thieno[3,2-f][1,2,4]triazolo[4,3-a][1,4]diazepin-6-yl)acetate] | only the first bromodomain of BRD4 is degraded | – | –
COC(=O)C[C@@H]1N=C(c2ccc(Cl)cc2)c2c(sc(C(=O)NCCCCCCCCNc3cccc(C(=O)NC4CCC(=O)NC4=O)n3)c2C)-n2c(C)nnc21 (stereo partly drawn) [compound 1, methyl 2-((6S)-4-(4-chlorophenyl)-2-((8-((6-((2,6-dioxopiperidin-3-yl)carbamoyl)pyridin-2-yl)amino)octyl)carbamoyl)-3,9-dimethyl-6H-thieno[3,2-f][1,2,4]triazolo[4,3-a][1,4]diazepin-6-yl)acetate] | able to efficiently degrade | able to efficiently degrade | able to efficiently degrade
